“Also recorded” adds a separate entry of the source.
How the values were obtained:
[1] = tested on: primary cortical neuron cultures; test: Aβ-induced toxicity, MTT cell survival in primary cortical neuron cultures; assay type: cell-based, mice; conditions: for cell survival (MTT, control cells normalized to 100%): overnight
Description: The inventors applied three different doses of Aβ overnight to primary cortical neuron cultures obtained from neonatal mice and examined cell survival using the MTT chemiluminescent assay (FIG. 6). The MTT value of control cells (no Aβ added) was normalized to 100% and all other MTT values of cells incubated with Aβ were presented as a percentage of survival.

BACE1 [2] = test: BACE1 FRET activity assay (Michaelis-Menten) on PACAP-treated cortical neuronal culture; assay type: cell-based, APP-transgenic mice; conditions: PACAP treatment
Description: FIG. 7 depicts, in accordance with embodiments herein, that PACAP inhibits BACE1 activity. Left panel: BACE1 activity kinetic was measured and fitted with Michaelis-Menten Model. […] Right panel: steady state endpoint fluorescent units (RFU). Note PACAP reduces the end product by BACE1.
(§1) As the amyloid accumulation in AD was contributed by amyloid precursor protein (APP) cleaved by overactive β-secretase (BACE1) and subsequently by γ-secretase, the desirable therapeutic goal is to inhibit BACE1 and/or γ-secretase, while enhancing α-secretase. The inventors used APP-transgenic mice pups to establish cortical neuronal culture with the method that the inventors previously published (Han et al 2014, Neurobiology of Aging). At 14 days, the inventors added PACAP and treated for 72 hours. Then the cells were harvest for BACE1, ADAMS, or other ELISA-based Assays.
The inventors measured BACE1 activity using a BACE1 FRET assay kit (Panvera, Life technologies) with a customized protocol. The artificial substrate of BACE1 is a short peptide with a rhodamine-derived fluorescent donor coupled to a quenching acceptor (Rh-[…]-Quencher). Upon cleavage by BACE1, the rhodamine donor is released from quencher and emitted fluorescence detected under a wavelength of Ex/Em=545/585 nm. […]

BACE1 [3] = test: BACE1 expression after PACAP treatment; assay type: cell-based, APP-transgenic mice
From the text: PACAP38 is the full length active peptide.
as §1

[4] = tested on: phosphorylated Tau protein at the site of pThr231; test: Aβ42-induced Tau phosphorylation at Thr231, Western blot in cultured primary neurons; assay type: cell-based
From the text: The cells were harvested and homogenized for Western blot assay. The inventors used an antibody specific to phosphorylated Tau protein at the site of pThr231 (Pierce-antibody OPA1-03156).

[5] = tested on: phosphorylated Tau protein at the site of 422; test: Aβ42-induced Tau phosphorylation at site 422, In-Cell Western in cultured primary neurons; assay type: cell-based
Description: The cells were fixed in 96 wells plate for In-Cell Western assay. The inventors used an antibody specific to phosphorylated Tau protein at the site of 422 and Tau5 antibody for total Tau quantification. pTau/total Tau ratio was calculated and compared. […] Okadaic acid (OA) is a potent phosphatase inhibitor to test maximal pTau capacity.
Because Tau hyperphosphorylation is contingent upon Aβ, this in vitro model best epitomizes AD pathogenesis and can differentiate AD from other tauopathy (FTLD, PDD, etc). […] Meanwhile, PACAP38 (lane 4) reduced Aβ-induced Tau phosphorylation and the phosphorylated Tau to actin ratio was 0.5. […] In addition to the phosphorylation site at Thr231 of Tau, the inventors tested pTau 422 using an in-cell Western approach on cultured cells (FIG. 11). PACAP (50 nM) reduces pTau422 by 40%.

cultured neurons [6] = test: Excitatory Postsynaptic Currents (EPSCs), Patch Clamp recording in cultured neurons; assay type: cell-based; conditions: for average EPSCs: control 21±5 pA
Description: (§2) FIG. 12 depicts, in accordance with embodiments herein, the impact of PACAP's administration on synapses. […] Cultured neurons were treated with either nothing (top left), Aβ42 (top middle) or PACAP with Aβ42 (top right). Bottom panel: PACAP enhances synaptic transmissions (EPSCs frequency and amplitude) in cultured neuronal network.
(§3) Furthermore, PACAP increased the frequency and amplitude of Excitatory Postsynaptic Currents (EPSCs) in cultured neurons without Aβ in the media (FIG. 12 bottom panel). The average EPSCs was 21±5 pA in control (n=7 cells), which was increased to 31±3 pA (n=9 cells) if the cultured neurons were pretreated with PACAP (20 nM) for 72 hours before Patch Clamp recording (p<0.05, one way ANOVA with posthoc Tukey test). PACAP6-38, the truncated non-active version mixed with PACAP38 blocked the effect of PACAP, resulting in an average EPSCs of 24±3 pA (n=6).

cultured neurons [7] = test: Neurite integrity / Aβ-induced synaptic degeneration in cultured neurons; assay type: cell-based; conditions: PACAP with Aβ42
Description: as §2, §3

APP transgenic mice [8] = test: Thioflavin-S dense core amyloid plaques in hippocampal region after intranasal PACAP; assay type: in vivo
Description: FIG. 13 depicts, in accordance with embodiments herein, the impact of PACAP's administration on plaques in APP transgenic mice in that PACAP reduces dense core amyloid plaque size. A: a typical amyloid plaque in the hippocampal region of an untreated APP transgenic mouse at 9 month age. Bar=20 μM. B: an amyloid plaque in the hippocampal region from an APP transgenic mouse (9 month) after intranasal PACAP treatment. Bar=20 μM.
(§4) The inventors gave intranasal PACAP treatment to a group of APP transgenic mice and their wild-type littermates. Starting from the age of 6 months, these groups of mice were given bilateral nostril injection of PACAP (0.1 μg/μl, 3 μl per nostril) three times per week for eight continuous weeks. The injection procedure was described by Nonako et al 2012. At the age of 9 months, the inventors sacrificed the mice and examined amyloid plaques in the hippocampal regions using thioflavin-S staining and photographed under fluorescent microscope. These thioflavin-S positive dense core plaques are associated with deleterious effects whereas thioflavin-S negative diffusive amyloid plaques are non-detrimental and often associated with cognitive normal elderly individuals (Serrano-Pozo et al., 2011).

[9] = tested on: APP transgenic mice and wild-type littermates; test: Novel Objects Recognition (NOR) test after intranasal PACAP; assay type: in vivo; conditions: PACAP-treated WT mice
Description: as §4
Next, the inventors performed the Novel Objects Recognition (NOR) test. Briefly, the mice were acclimatized to a square chamber, then two identical objects were placed in the chamber on the second day. On the third day, one of the objects was replaced with a novel object. It is a natural behavior to take more time to explore the new object. The discriminating capacity on the new object vs the old object was calculated as discrimination index (DI) as follows:
In APP mice, DI change was −110% (n=4), indicating deterioration on cognitive function from 6-9 month (without PACAP treatment). […]

APP transgenic mice [10] = test: Morris Water Maze (MWM) in APP mice after intranasal PACAP; assay type: in vivo; conditions: APP mice at 10 months
Description: (A) APP mice were either treated with intranasal PACAP (n=4) or treated with intranasal saline (n=4). (B) WT mice were either treated with intranasal PACAP (n=3) or saline (n=3).
as §4
In APP mice, DI change was −110% (n=4), indicating deterioration on cognitive function from 6-9 month (without PACAP treatment). PACAP treatment slows the declining rate as the DI change was −40% in PACAP-treated APP mice group (n=4). Furthermore, the inventors tested the mice in the Morris Water Maze (MWM), which is a behavior test used to examine the spatial recognition and memory function of mice. […]

hTau transgenic mice = test: Morris Water Maze in hTau transgenic mice after intranasal PACAP; assay type: in vivo; conditions: hTau mice at 10 months, intranasal PACAP 0.1 μg/μl, 3 μl per nostril, 3 times a week, 8 weeks
Description: The inventors gave intranasal PACAP treatment for a group of hTau transgenic mice and their WT littermates. Starting from the age of 6 months, these groups of mice were given bilateral nostril injection of PACAP (0.1 μg/μl, 3 μl per nostril) 3 times a week for a continuous 8 weeks. Human Tau mice are appropriate model to test Tau phosphorylation and its pathological consequence. In this strain (B6.Cg-Mapttml(EGFP)Klt Tg(MAPT)8cPdav/J, Jackson lab), the intrinsic mice tau was disrupted by inserting eGFP sequence to the first exon of mice tau, but all 6 isoforms of human Tau (both 3R and 4R) were knocked in. The hTau mice show age dependent accumulation of hyperphosphorylated and aggregated tau in cortex and hippocampus, neuronal loss, and cognitive decline. The inventors tested the mice in Morris Water Maze, which is a behavior test approach to examine the spatial recognition and memory function of mice. […] Taken together, PACAP nasal injection decreases AD pathology and improves cognitive performance in two animal models of AD.

**Q.** What does the source list for “Pituitary Adenylate Cyclase Activating Polypeptide [PACAP]”?
**A.** PACAP concentration that effectively protects against Aβ42 toxicity ([1]; Aβ42 1 μM, cultured mouse cortical neurons): ≥ 50 nM; cell survival (MTT, control cells normalized to 100%) ([1]; PACAP 50 nM added at the same time as 1 μM Aβ): 79±5%; cell survival (MTT, control cells normalized to 100%) ([1]; PACAP 100 nM added at the same time as 1 μM Aβ): 87±4%; steady state endpoint fluorescent units (RFU), end product by BACE1 (BACE1 [2]): reduces; BACE1 expression (BACE1 [3]; PACAP38 full length peptide): reduces BACE1 expression; phosphorylated Tau (pTau231) to actin ratio ([4]; PACAP38 (50 nM) added 24 hours after Aβ42 (0.5 μM), 48 hours, lane 4, non-treated 0.25): 0.5; reduction of pTau422 ([5]; PACAP 50 nM, Aβ42 (0.25 μM) treated cells): 40%; pTau/total Tau ratio ([5]; PACAP by itself, without Aβ42): did not change Tau phosphorylation; reduction of pTau422 ([5]; low dose PACAP 10 nM, Aβ42 treated cells): marginal effect; frequency and amplitude of EPSCs (cultured neurons [6]; cultured neurons without Aβ in the media): increased; also recorded: enhances; average EPSCs (cultured neurons [6]; pretreated with PACAP (20 nM) 72 hours, no Aβ): 31±3 pA; neurite integrity / Aβ-induced synaptic degeneration (cultured neurons [7]): protects Aβ-induced synaptic degeneration; also recorded: protects Aβ induced synaptic degeneration; also recorded: protects neurite integrity; dense core amyloid plaque size (average core diameter) (APP transgenic mice [8]; intranasal PACAP 0.1 μg/μl, 3 μl per nostril, three times per week, eight weeks from 6 months, examined at 9 months): smaller size; also recorded: significantly reduced; number of amyloid plaques (APP transgenic mice [8]; intranasal PACAP, APP transgenic mice, 9 month): did not significant change; discrimination index (DI) change [9]: positively changed; MWM performance (APP transgenic mice [10]): prevents the deterioration; MWM performance (hTau transgenic mice): prevented the deterioration

**Q.** How did the “effect of PAC1 receptor blocker on BACE1 reduction by PACAP” value (BACE1 [3]; PACAP6-38 with PACAP) turn out when PACAP6-38 [reference compound] was run?
**A.** antagonized the BACE1 reduction effect of PACAP

**Q.** What about the “effect on PACAP reduction of pTau231” value ([4]; PACAP6-38 (2 μM) with PACAP38 (50 nM) and Aβ42, lane 3) of the same substance?
**A.** offsetting the effect of PACAP

**Q.** And the “effect on PACAP enhancement of synaptic transmissions” value (cultured neurons [6]; PAC1 receptor antagonist with PACAP)?
**A.** blocks the enhancement

**Q.** What about the “average EPSCs” value (cultured neurons [6]; PACAP6-38 mixed with PACAP38) of the same substance?
**A.** 24±3 pA
